Test results taken from patent US10189838B2, “Aza-oxo-indoles for the treatment and prophylaxis of respiratory syncytial virus infection” (Hoffmann-La Roche Inc., priority 2013, dated 2019).

Tested on: RSV Long strain
Assay: Viral cytopathic effect (CPE) assay, RSV Long strain
Format: cell-based, Respiratory Syncytial Virus
Settings: cell viability after 6 days (Cell Counting kit-8)
Outline: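 Cells in DMEM with 10% FBS infected next day with RSV Long (A subtype) at a dose giving ~80–90% CPE after 6 days, alongside half-log compound dilutions. Viability at day 6 by CCK-8, absorbance 450 nm referenced to 630 nm; EC50 is concentration giving 50% of maximal protection.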

[1] = human respiratory syncytial virus, 144 h

Structure (SMILES) | EC50 [1] [µM] | EC50 [µM]
O=C1N(Cc2cc3cc(Cl)ccc3n2CCN2CCNCC2)c2cnccc2C12CC2 [Example 24-1, 1′-({5-Chloro-1-[2-(piperazin-1-yl)ethyl]-1H-indol-2-yl}methyl)spiro[cyclopropane-1,3′-pyrrolo[2,3-c]pyridin]-2′(1′H)-one] | 0.068 | –
O=C1N(Cc2cc3cc(Cl)ccc3n2CCCS(=O)(=O)N2CCNCC2)c2cnccc2C12CC2 [Example 24-2, 1′-({5-Chloro-1-[3-(piperazin-1-ylsulfonyl)propyl]-1H-indol-2-yl}methyl)spiro[cyclopropane-1,3′-pyrrolo[2,3-c]pyridin]-2′(1′H)-one] | 0.015 | –
O=C1N(Cc2cc3cc(Cl)ccc3n2CCCS(=O)(=O)N2C[C@H]3C[C@@H]2CN3)c2cnccc2C12CC2 [Example 24-3, 1′-[(5-Chloro-1-{3-[(1R,4R)-2,5-diazabicyclo[2.2.1]hept-2-ylsulfonyl]propyl}-1H-indol-2-yl)methyl]spiro[cyclopropane-1,3′-pyrrolo[2,3-c]pyridin]-2′(1′H)-one] | 0.019 | –
O=C1CNCCN1CCCn1c(CN2C(=O)C3(CC3)c3ccncc32)cc2cc(Cl)ccc21 [Example 24-4, 1′-({5-Chloro-1-[3-(2-oxopiperazin-1-yl)propyl]-1H-indol-2-yl}methyl)spiro[cyclopropane-1,3′-pyrrolo[2,3-c]pyridin]-2′(1′H)-one] | 0.03 | –
NCCn1c(CN2C(=O)C3(CC3)c3ccncc32)cc2cc(Cl)ccc21 [Example 24-5, 1′-{[1-(2-Aminoethyl)-5-chloro-1H-indol-2-yl]methyl}spiro[cyclopropane-1,3′-pyrrolo[2,3-c]pyridin]-2′(1′H)-one] | 0.064 | –
CNS(=O)(=O)CCCn1c(CN2C(=O)C3(CC3)c3ccncc32)cc2cc(Cl)cnc21 [Example 25-1, 3-{5-Chloro-2-[(2′-oxospiro[cyclopropane-1,3′-pyrrolo[2,3-c]pyridin]-1′(2′H)-yl)methyl]-1H-pyrrolo[2,3-b]pyridin-1-yl}-N-methylpropane-1-sulfonamide] | 0.057 | –
CNS(=O)(=O)CCCn1c(CN2C(=O)C3(CC3)c3ccncc32)cc2cc(Cl)ccc21 [Example 25-2, 3-{5-Chloro-2-[(2′-oxospiro[cyclopropane-1,3′-pyrrolo[2,3-c]pyridin]-1′(2′H)-yl)methyl]-1H-indol-1-yl}-N-methylpropane-1-sulfonamide] | 0.011 | –
NS(=O)(=O)CCCn1c(CN2C(=O)C3(CC3)c3ccncc32)cc2cc(Cl)cnc21 [Example 25-3, 3-{5-Chloro-2-[(2′-oxospiro[cyclopropane-1,3′-pyrrolo[2,3-c]pyridin]-1′(2′H)-yl)methyl]-1H-pyrrolo[2,3-b]pyridin-1-yl}propane-1-sulfonamide] | 0.041 | –
CC(=O)N1CCN(CCn2c(CN3C(=O)C4(CC4)c4ccncc43)cc3cc(Cl)ccc32)CC1 [Example 26-1, 1′-({1-[2-(4-Acetylpiperazin-1-yl)ethyl]-5-chloro-1H-indol-2-yl}methyl)spiro[cyclopropane-1,3′-pyrrolo[2,3-c]pyridin]-2′(1′H)-one] | 0.025 | –
CC(=O)NS(=O)(=O)CCCn1c(CN2C(=O)C3(CC3)c3ccncc32)cc2cc(Cl)cnc21 [Example 26-2, N-[(3-{5-Chloro-2-[(2′-oxospiro[cyclopropane-1,3′-pyrrolo[2,3-c]pyridin]-1′(2′H)-yl)methyl]-1H-pyrrolo[2,3-b]pyridin-1-yl}propyl)sulfonyl]acetamide] | 1.92 | –
CC(=O)NCCn1c(CN2C(=O)C3(CC3)c3ccncc32)cc2cc(Cl)ccc21 [Example 26-3, N-(2-{5-Chloro-2-[(2′-oxospiro[cyclopropane-1,3′-pyrrolo[2,3-c]pyridin]-1′(2′H)-yl)methyl]-1H-indol-1-yl}ethyl)acetamide] | 0.025 | –
CS(=O)(=O)N1CCN(CCn2c(CN3C(=O)C4(CC4)c4ccncc43)cc3cc(Cl)ccc32)CC1 [Example 27-1, 1′-[(5-Chloro-1-{2-[4-(methylsulfonyl)piperazin-1-yl]ethyl}-1H-indol-2-yl)methyl]spiro[cyclopropane-1,3′-pyrrolo[2,3-c]pyridin]-2′(1′H)-one] | 0.006 | –
CS(=O)(=O)NCCn1c(CN2C(=O)C3(CC3)c3ccncc32)cc2cc(Cl)ccc21 [Example 27-2, N-(2-{5-Chloro-2-[(2′-oxospiro[cyclopropane-1,3′-pyrrolo[2,3-c]pyridin]-1′(2′H)-yl)methyl]-1H-indol-1-yl}ethyl)methanesulfonamide] | 0.0115 | –
CS(=O)(=O)NCCCn1c(CN2C(=O)C3(CC3)c3ccncc32)cc2cc(Cl)ccc21 [Example 27-3, N-(3-{5-Chloro-2-[(2′-oxospiro[cyclopropane-1,3′-pyrrolo[2,3-c]pyridin]-1′(2′H)-yl)methyl]-1H-indol-1-yl}propyl)methanesulfonamide] | 0.499 | –
N=C(N)NCCn1c(CN2C(=O)C3(CC3)c3ccncc32)cc2cc(Cl)ccc21 [Example 28] | – | 0.064
O=C1N(Cc2cc3cc(Cl)ccc3n2CCCNCCO)c2cnccc2C12CC2 [Example 29, 1′-[(5-Chloro-1-{3-[(2-hydroxyethyl)amino]propyl}-1H-indol-2-yl)methyl]spiro[cyclopropane-1,3′-pyrrolo[2,3-c]pyridin]-2′(1′H)-one] | 0.244 | –

Structure (SMILES) | EC50 [1] [µM] | EC50 [µM]
COC(=O)NCCCn1c(CN2C(=O)C3(CC3)c3ccncc32)cc2cc(Cl)ccc21 [Example 30, Methyl(3-{5-chloro-2-[(2′-oxospiro[cyclopropane-1,3′-pyrrolo[2,3-c]pyridin]-1′(2′H)-yl)methyl]-1H-indol-1-yl}propyl)carbamate] | 0.02 | –
O=C(NCC(F)(F)F)OCCCn1c(CN2C(=O)C3(CC3)c3ccncc32)cc2cc(Cl)ccc21 [Example 31, 3-{5-Chloro-2-[(2′-oxospiro[cyclopropane-1,3′-pyrrolo[2,3-c]pyridin]-1′(2′H)-yl)methyl]-1H-indol-1-yl}propyl(2,2,2-trifluoroethyl)carbamate] | 0.052 | –
CCS(=O)(=O)CCc1c(CN2C(=O)C3(CC3)c3cccnc32)[nH]c2cc(Cl)ccc12 [Example 32-1, 1′-({6-Chloro-3-[2-(ethylsulfonyl)ethyl]-1H-indol-2-yl}methyl)spiro[cyclopropane-1,3′-pyrrolo[2,3-b]pyridin]-2′(1′H)-one] | 0.009 | –
CS(=O)(=O)CCc1c(CN2C(=O)C3(CC3)c3ccncc32)[nH]c2cc(Cl)ccc12 [Example 32-2, 1′-({6-Chloro-3-[2-(methylsulfonyl)ethyl]-1H-indol-2-yl}methyl)spiro[cyclopropane-1,3′-pyrrolo[2,3-c]pyridin]-2′(1′H)-one] | 0.005 | –
CS(=O)(=O)CCCc1c(CN2C(=O)C3(CC3)c3ccncc32)[nH]c2cc(Cl)ccc12 [Example 33, 1′-({6-Chloro-3-[3-(methylsulfonyl)propyl]-1H-indol-2-yl}methyl)spiro[cyclopropane-1,3′-pyrrolo[2,3-c]pyridin]-2′(1′H)-one] | 0.006 | –
CS(=O)(=O)CCn1c(CN2C(=O)C3(CC3)c3c(F)cccc32)nc2cc(Cl)ccc21 [Example 34-2, 1′-({5-Chloro-1-[2-(methylsulfonyl)ethyl]-1H-benzimidazol-2-yl}methyl)-4′-fluorospiro[cyclopropane-1,3′-indol]-2′(1′H)-one] | 0.02 | –
CS(=O)(=O)CCn1c(CN2C(=O)C3(CC3)c3c(Cl)cccc32)nc2cc(Cl)ccc21 [Example 34-3, 4′-Chloro-1′-({5-chloro-1-[2-(methylsulfonyl)ethyl]-1H-benzimidazol-2-yl}methyl)spiro[cyclopropane-1,3′-indol]-2′(1′H)-one] | 0.066 | –
CS(=O)(=O)CCn1c(CN2C(=O)C3(CC3)c3c(Br)cccc32)nc2cc(Cl)ccc21 [Example 34-4, 4′-Bromo-1′-({5-chloro-1-[2-(methylsulfonyl)ethyl]-1H-benzimidazol-2-yl}methyl)spiro[cyclopropane-1,3′-indol]-2′(1′H)-one] | 0.205 | –
CCS(=O)(=O)CCn1c(CN2C(=O)C3(CC3)c3ccncc32)nc2cc(Cl)ccc21 [Example 34-5, 1′-({5-Chloro-1-[2-(ethylsulfonyl)ethyl]-1H-benzimidazol-2-yl}methyl)spiro[cyclopropane-1,3′-pyrrolo[2,3-c]pyridin]-2′(1′H)-one] | 0.013 | –
O=C1N(Cc2nc3cc(Cl)ccc3n2CCC2CS(=O)(=O)C2)c2cnccc2C12CC2 [Example 35, 1′-({5-Chloro-1-[2-(1,1-dioxidothietan-3-yl)ethyl]-1H-benzimidazol-2-yl}methyl)spiro[cyclopropane-1,3′-pyrrolo[2,3-c]pyridin]-2′(1′H)-one] | 0.0011 | –
CS(=O)(=O)CCCn1c(CN2C(=O)C3(CC3)c3ccncc32)nc2cc(Cl)ccc21 [Example 36-1, 1′-({5-Chloro-1-[3-(methylsulfonyl)propyl]-1H-benzimidazol-2-yl}methyl)spiro[cyclopropane-1,3′-pyrrolo[2,3-c]pyridin]-2′(1′H)-one] | 0.002 | –
O=C1N(Cc2nc3cc(Cl)ccc3n2CCS(=O)(=O)C2CC2)c2cnccc2C12CC2 [Example 36-2, 1′-({5-Chloro-1-[2-(cyclopropylsulfonyl)ethyl]-1H-benzimidazol-2-yl}methyl)spiro[cyclopropane-1,3′-pyrrolo[2,3-c]pyridin]-2′(1′H)-one] | 0.008 | –
CS(=O)(=O)CCn1c(CN2C(=O)C3(CC3)c3ccncc32)nc2cc(Cl)cc(Cl)c21 [Example 37-2, 1′-({5,7-Dichloro-1-[2-(methylsulfonyl)ethyl]-1H-benzimidazol-2-yl}methyl)spiro[cyclopropane-1,3′-pyrrolo[2,3-c]pyridin]-2′(1′H)-one] | 0.0168 | –
O=C1N(Cc2nc3cc(Cl)ccc3n2CC2COC2)c2cnccc2C12CC2 [Example 38-1, 1′-{[5-Chloro-1-(oxetan-3-ylmethyl)-1H-benzimidazol-2-yl]methyl}spiro[cyclopropane-1,3′-pyrrolo[2,3-c]pyridin]-2′(1′H)-one] | 0.003 | –
O=C1N(Cc2nc3cc(Cl)ccc3n2CCC2COC2)c2cnccc2C12CC2 [Example 38-2, 1′-({5-Chloro-1-[2-(oxetan-3-yl)ethyl]-1H-benzimidazol-2-yl}methyl)spiro[cyclopropane-1,3′-pyrrolo[2,3-c]pyridin]-2′(1′H)-one] | 0.003 | –
